Experimental data published in US11045519B2, “Arginine-rich polypeptide compositions and methods of using same” (UNM Rainforest Innovations, priority 2017, dated 2021).
pIC50: −log10 of the molar value. “Also recorded” adds a separate entry of the source.

How the values were obtained:
recombinant His-furin = target: T1, recombinant His-furin (Homo sapiens, UniProt P09958); experiment: Furin cleavage of HPV16 L2 capsid protein (immunoblot); format: biochemical; conditions: 1 μM, 3 nM His-furin, 2 h
T1 construct: His
Procedure: FIG. 9. PolyR inhibits HPV16 L2 protein cleavage by furin and induces accumulation of internalized virus particles in late endosomal fraction. (A) Equal amount of HPV16 diluted in 50 μl furin assay buffer (1 mM CaCl2), 100 mM HEPES, 0.5% Triton X-100, 1 mM β-mercaptoethanol) was loaded into six tubes, […], in the presence of 1.3 μM furin inhibitor1 (Merck Millipore Corp., Burlington, Mass.), or 1 μM polyR. Samples were mixed with SDS-PAGE sample buffer and boiled before fractionation on 9% gel. Proteins were transferred onto PVDF membranes and after blocking, incubated with affinity-purified rabbit anti-HPV16 polyclonal antibody. Secondary donkey anti-rabbit horseradish peroxidase-coupled antibody was used for detection of HPV16 capsid proteins. (B) HaCaT cells grown on coverslips were incubated with HPV16 PsVs for one hour at 37° C. to initiate virus binding (and partial internalization) before adding 1 μM polyR and further incubated for seven hours. […]
Cleavage of the L2 minor capsid protein by the cellular pro-protein convertase, furin, is an essential step in infectious entry of HPVs. […] After two hours of incubation, HPV16 cleavage was assessed by immunoblotting using anti-HPV 16 polyclonal antibody. […]

HPV16 PsVs = experiment: HPV16 PsV binding to CHO mutant cells (L1 immunoblot); format: cell-based; conditions: 3 μM, 30 min pre-treatment
Procedure: FIG. 7. HPV binding and infection of CHO mutant cells in the presence of polyR. CHO mutant pgsA-745 cells (GAG deficient) and CHO mutant pgsD-677 cells (HS deficient) were grown in Ham's F12 medium supplemented with 10% fetal bovine serum and 1% Glutamax (Invitrogen, Thermo Fisher Scientific, Inc., Carlsbad, Calif.). (A) Cells were incubated with 3 μM polyR in the medium for 30 minutes before adding HPV16 PsVs and incubating at 4° C. for one hour. After extensive washing with PBS, cells were lysed and analyzed for the content of L1, as described in FIG. 4A. (B) Semi-confluent CHO-pgsA were treated with 3 μM polyR for one hour prior to adding HPV16 PsVs. Infection was scored at 24 hours post infection as described in FIG. 1. (C) Semi-confluent CHO-pgsD cells were treated with 3 μM polyR for one hour prior to adding HPV16 PsVs. Infection was scored at 24 hours post infection as described in FIG. 1.
To test the effects of polyR on cells that differentially express heparan sulfate versus heparan sulfonated proteoglycans, like glycosaminoglycans (GAGs), genetically mutant clones of Chinese hamster ovary (CHO) cell lines were used. […] First, the effect of polyR on HPV16 PsV binding to these mutant cells was measured.

[1] = system: HPV16 pseudovirions (PsVs); experiment: HPV16 PsV luciferase infectivity assay, HaCaT cells pretreated with peptide; format: cell-based; conditions: 24 h
Procedure: HaCaT cells were cultured in complete growing medium (CM; Dulbecco's modified Eagle's medium nutrient mixture F-12 HAM (Sigma-Aldrich, St. Louis, Mo.)) supplemented with 10% fetal bovine serum (FBS), amino acids (Sigma-Aldrich, St. Louis, Mo.), 2 mM L-glutamine, 100 U/ml penicillin and 1 μg/ml streptomycin (Sigma-Aldrich, St. Louis, Mo.), as previously described (Patterson et al., 2005. J Virol 79:6838-6847). Semi-confluent cells were pretreated for 30 minutes with arginine-rich peptides dissolved in CM (6 μM gp91dstat, gp91dstat (scramble), R9, and TAT, or 3 polyR) before the exposure to HaCaT cells and 300 vge/cell HPV16 pseudovirions (PsVs) packaging a luciferase reporter plasmid. Infectivity was scored after 24 hours of incubation at 37° C. (i.e., post infection) by Lumat LB9501 (Berthold Technologies GmbH & Co KG, Bad Wildbad, Germany) equipment, using the luciferase assay kit (Promega, Madison, Wis.) according to manufacturer's specification. Raw data were normalized to total cellular protein concentration. Graph summarizes triplicate treatments; error bars represent SEM.
Fifty percent inhibitory concentration (IC50) of HPV16 PsV infection of HaCaT cells by the compounds. For generation of an inhibitory concentration 50 (IC50) curves, cells were pretreated with the indicated concentration of arginine-rich peptides prior to HPV16 PsV exposure. Infectivity was scored after 24 hours of incubation at 37° C. and the data from two independent duplicate experiments were pooled and analyzed using non-linear regression (curve fit) function of PRISM software (GraphPad Software, Inc., LaJolla, Calif.).
Semi-confluent HaCaT cells maintained in CM, were pretreated for one hour with PrS dissolved in CM at the 0-5.8 μM concentrations before exposure to HPV16 PsVs (350 vge/cell). Infectivity was scored after 24 hours of incubation at 37° C. using a luminometer (Lumat LB9501, Berthold GmbH & Co., Bad Wildbad, Germany) and luciferase assay (Promega, Madison, Wis.) according to manufacturer's specification. Raw data were normalized to total cellular protein concentration.
For generation of an inhibitory concentration 50 (IC50) curve for PrS inhibition, data from two independent duplicate experiments was pooled and analyzed using the non-linear regression (curve fit) function of PRISM (GraphPad Software, Inc., La Jolla, Calif.).
3 μM PrS incubated for one hour at room temperature with 2 mg/ml high or low molecular weight HA in CM, prior to the addition to HaCaT cells. 350 vge/cell HPV16 PsVs were used for infection of cells in the presence or absence of PrS or HA:PrS complex. Infection was scored after 24 hours as described in FIG. 12.
HaCaT cells were pretreated with 6 μM concentrations of gp91dstat, gp91dstat (scramble), R9, or TAT, or 3 μM polyR. After 30 minutes of incubation at 37° C., cells were infected with HPV16 pseudovirions (PsVs) at a dose of 300 viral genome equivalents (vge)/cell, and the relative infectivity was quantified after 24 hours compared to infection in untreated cells (FIG. 1). Each treatment was performed in triplicate.
To evaluate the anti-HPV activity of PrS, HaCaT cells, a keratinocyte-derived cell line, was used as a model for analysis of HPV infection. […]
Infections were initiated using Luciferase-expressing HPV16 PsVs that were produced, isolated, and quantified as described previously (Surviladze et al., 2012. PLoS Pathogens 8: e1002519; Campos S K and Ozbun M A, 2009. PloS One 4:e4463). […]

T1 sequence (P09958 108-794): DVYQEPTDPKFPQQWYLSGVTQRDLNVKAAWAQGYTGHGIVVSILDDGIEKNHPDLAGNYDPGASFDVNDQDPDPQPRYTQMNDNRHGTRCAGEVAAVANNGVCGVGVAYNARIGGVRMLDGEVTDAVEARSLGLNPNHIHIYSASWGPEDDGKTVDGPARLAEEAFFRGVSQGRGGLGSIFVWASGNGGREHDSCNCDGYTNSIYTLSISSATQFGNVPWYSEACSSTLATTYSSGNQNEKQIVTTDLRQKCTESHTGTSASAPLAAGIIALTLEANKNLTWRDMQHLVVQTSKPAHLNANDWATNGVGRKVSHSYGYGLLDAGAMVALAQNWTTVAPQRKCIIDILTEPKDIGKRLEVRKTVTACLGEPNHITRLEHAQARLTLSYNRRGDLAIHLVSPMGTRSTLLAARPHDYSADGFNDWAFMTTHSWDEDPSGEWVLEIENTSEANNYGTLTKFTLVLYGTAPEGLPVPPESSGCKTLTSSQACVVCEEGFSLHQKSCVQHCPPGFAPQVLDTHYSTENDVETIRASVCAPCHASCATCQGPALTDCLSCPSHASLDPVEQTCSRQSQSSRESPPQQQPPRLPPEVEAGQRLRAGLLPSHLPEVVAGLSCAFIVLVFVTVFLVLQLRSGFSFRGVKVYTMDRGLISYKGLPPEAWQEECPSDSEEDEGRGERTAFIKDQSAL

poly-L-arginine [polyR]
furin cleavage of L2 capsid protein (recombinant His-furin): inhibited cleavage of the L2 capsid protein
HPV16 PsV binding (HPV16 PsVs; CHO pgsA-745 cells (GAG deficient)): did not prevent HPV binding; also recorded: increased binding was observed
HPV16 PsV binding (HPV16 PsVs; CHO pgsD-677 cells (HS deficient)): did not prevent HPV binding
inhibition of HPV16 PsV infection ([1]; 3 μM, 30 min pretreatment of HaCaT cells, 300 vge/cell): > 98%
pIC50 ([1]; pretreatment before PsV exposure, two independent duplicate experiments, read-out: IC50 of HPV16 PsV infection of HaCaT cells): 7.72
